From patent publication US12383545B1, “Treatment of migraine” (priority 2018, dated 2025)

Columns and labels:
[1] = human, in vivo
Protocol: Data was also evaluated from Study C (described in Example 3) and Study D, a Phase 2b/3 clinical trial evaluating the efficacy, safety, and tolerability of orally administered atogepant. In Study D, after a 28 day baseline period, a total of 652 patients were randomized 1:2:2:2 to receive either atogepant 10 mg (n=94), atogepant 30 mg (n=185), atogepant 60 mg (n=187) or placebo (n=186).
The proportion of patients with weight decrease ≥7% at any point was 2.8% for placebo, 3.8% for atogepant 10 mg, 3.2% for atogepant 30 mg, and 4.9% for atogepant 60 mg. No patients in either study discontinued atogepant due to decreased weight.

[2] = test system: participants with episodic migraine; assay: Study A: Headache Impact Test (HIT-6); assay type: in vivo, human; conditions: for HIT-6 change from baseline to week 12, MMRM LS mean change (SE) / HIT-6 change from baseline to week 12, mean (SD) / HIT-6 score, Week 12, mean (SD): mITT
Protocol: In embodiments, the present disclosure provides a method for preventing migraine (such as a method for preventing migraine in patients having fewer than fifteen migraine days per month) wherein atogepant is administered in an amount of 10 mg QD, 30 mg QD, or 60 mg QD, wherein administration of atogepant results in a reduction in a 6-item Headache Impact Test (HIT-6) disability score relative to baseline. The Headache Impact Test (HIT-6) is a well-known tool for assessing migraine intensity, and uses six questions to measure the adverse impact of headache on, for example, social functioning, role functioning, vitality, cognitive functioning, and psychological distress. Responses are based on frequency using a 5-point verbal response scale ranging from “never” to “always”. The HIT-6 total score is the sum of the responses, and ranges from 36 to 78. See Yang et al., Validation of the Headache Impact Test (HIT-6™) Across Episodic and Chronic Migraine, Cephalalgia 2011 February; 31 (3): 357-367. In embodiments, treatment with atogepant results in a greater than five (≥5) point decrease in HIT-6 disability score.
The Headache Impact Test (HIT-6, completed monthly) represented an additional exploratory measure. The HIT-6 test is a well-known tool for assessing migraine intensity that uses six questions to capture the impact of headache and its treatment on an individual's functional health and well-being. HIT-6 was completed monthly and was evaluated as the change from baseline in HIT-6 total score at weeks 4, 8, and 12.

[3] = test system: ALT or AST; assay: Example 5: postbaseline hepatic laboratory parameter values of clinical interest; assay type: in vivo, human; conditions: safety population
Protocol: In a multicenter, randomized, double-blind, placebo-controlled, parallel-group study designed to evaluate the efficacy, safety, and tolerability of multiple doses and doses regimens of atogepant for the prevention of migraine. The patients were randomized (2:1:2:1:2:1) to 1 of 6 treatment groups: placebo, atogepant 10 mg QD, atogepant 30 mg QD, atogepant 30 mg BID, atogepant 60 mg QD, and atogepant 60 mg BID.
A total of 834 patients were randomized to double-blind treatment (ITT population), and 825 patients took at least 1 dose of double-blind IP (safety population). […] The primary efficacy variable was the change from baseline in mean monthly migraine/probable migraine headache days across the 12-week treatment period. The secondary efficacy variables were the change from baseline in mean monthly headache days across the 12-week treatment period, proportion of patients with at least a 50% reduction in mean monthly migraine/probable migraine headache days across the 12-week treatment period, and the change from baseline in mean monthly acute medication use days across the 12-week treatment period.

[4] = Atogepant 10 mg QD (N = 93), same day

## C[C@@H]1[C@H](c2c(F)ccc(F)c2F)C[C@H](NC(=O)c2cnc3c(c2)C[C@@]2(C3)C(=O)Nc3ncccc32)C(=O)N1CC(F)(F)F [atogepant]
[1]
  TEAE Weight decreased: 5 (0.4%) n (%)
[2]; 10 mg QD
  HIT-6 change to week 12, LSMD vs placebo (95% CI): −3.2
  HIT-6 change from baseline to week 12, MMRM LS mean change (SE): −8.4
  HIT-6 change from baseline to week 12, mean (SD): −8.3
  HIT-6 score, Week 12, mean (SD): 55.8
[2]; 10 mg QD, Week 4
  HIT-6 responders (≥5 point reduction), n/N (%): (48.6) %
  HIT-6 responders, odds ratio vs. placebo (95% CI): 1.53
[2]; 10 mg QD, Week 8
  HIT-6 responders (≥5 point reduction), n/N (%): (60.4) %
  HIT-6 responders, odds ratio vs. placebo (95% CI): 1.79
[2]; 10 mg QD, Week 12
  HIT-6 responders (≥5 point reduction), n/N (%): (64.5) %
  HIT-6 responders, odds ratio vs. placebo (95% CI): 1.74
[2]; 30 mg QD
  HIT-6 change to week 12, LSMD vs placebo (95% CI): −2.9
  HIT-6 change from baseline to week 12, MMRM LS mean change (SE): −8.1
  HIT-6 change from baseline to week 12, mean (SD): −8.1
  HIT-6 score, Week 12, mean (SD): 56.1
[2]; 30 mg QD, Week 4
  HIT-6 responders (≥5 point reduction), n/N (%): (46.8) %
  HIT-6 responders, odds ratio vs. placebo (95% CI): 1.43
[2]; 30 mg QD, Week 8
  HIT-6 responders (≥5 point reduction), n/N (%): (62.2) %
  HIT-6 responders, odds ratio vs. placebo (95% CI): 1.95
[2]; 30 mg QD, Week 12
  HIT-6 responders (≥5 point reduction), n/N (%): (62.7) %
  HIT-6 responders, odds ratio vs. placebo (95% CI): 1.54
[2]; 60 mg QD
  HIT-6 change to week 12, LSMD vs placebo (95% CI): −4.0
  HIT-6 change from baseline to week 12, MMRM LS mean change (SE): −9.2
  HIT-6 change from baseline to week 12, mean (SD): −9.9
  HIT-6 score, Week 12, mean (SD): 54.5
[2]; 60 mg QD, Week 4
  HIT-6 responders (≥5 point reduction), n/N (%): (56.2) %
  HIT-6 responders, odds ratio vs. placebo (95% CI): 2.18
[2]; 60 mg QD, Week 8
  HIT-6 responders (≥5 point reduction), n/N (%): (64.7) %
  HIT-6 responders, odds ratio vs. placebo (95% CI): 2.25
[2]; 60 mg QD, Week 12
  HIT-6 responders (≥5 point reduction), n/N (%): (65.2) %
  HIT-6 responders, odds ratio vs. placebo (95% CI): 1.77
[3]; Atogepant 10 mg QD (N = 93)
  Participants with postbaseline ALT or AST (U/L) >=1 * ULN, (%): (18.5) %
  Participants with postbaseline ALT or AST (U/L) >=1 * ULN, n/N1: 17/92
  Participants with postbaseline ALT or AST (U/L) >=1.5 * ULN, (%): (4.3) %
  Participants with postbaseline ALT or AST (U/L) >=1.5 * ULN, n/N1: 4/92
  Participants with postbaseline ALT or AST (U/L) >=2 * ULN, (%): (4.3) %
  Participants with postbaseline ALT or AST (U/L) >=2 * ULN, n/N1: 4/92
  Participants with postbaseline ALT or AST (U/L) >=3 * ULN, (%): (2.2) %
  Participants with postbaseline ALT or AST (U/L) >=3 * ULN, n/N1: 2/92
  Participants with postbaseline ALT or AST (U/L) >=5 * ULN, n/N1: 0
  Participants with postbaseline ALT or AST (U/L) >=10 * ULN, n/N1: 0
  Participants with postbaseline ALT or AST (U/L) >=20 * ULN, n/N1: 0
[3]; [4]
  Participants with Concurrent Elevations ALT or AST >=3 * ULN AND Bilirubin Total >=1.5 * ULN, n/N1: 0
  Participants with Concurrent Elevations ALT or AST >=3 * ULN AND Bilirubin Total >=2 * ULN, n/N1: 0
  Participants with Potential Hy's Law ALT or AST >=3 * ULN AND Bilirubin Total >=2 * ULN AND ALP <2 * ULN, n/N1: 0
[3]; Atogepant 30 mg BID (N = 86)
  Participants with postbaseline ALT or AST (U/L) >=1 * ULN, (%): (13.1) %
  Participants with postbaseline ALT or AST (U/L) >=1 * ULN, n/N1: 11/84
  Participants with postbaseline ALT or AST (U/L) >=1.5 * ULN, (%): (2.4) %
  Participants with postbaseline ALT or AST (U/L) >=1.5 * ULN, n/N1: 2/84
  Participants with postbaseline ALT or AST (U/L) >=2 * ULN, (%): (2.4) %
  Participants with postbaseline ALT or AST (U/L) >=2 * ULN, n/N1: 2/84
